Results reported in US20110034507A1, “FARNESOID X RECEPTOR AGONISTS” (SMITHKLINE BEECHAM CORPORATION, priority 2007, published 2011).

Molecular target: T1, Human FXRα Ligand Binding Domain (Homo sapiens, UniProt Q96RI1)
T1 construct: polyhistidine (pRSET-A vector leader) (N); made in house; host or cells: E. coli BL21 (DE3), pRSET-A vector
T1 sequence (Q96RI1 237-472 isoform Q96RI1-2): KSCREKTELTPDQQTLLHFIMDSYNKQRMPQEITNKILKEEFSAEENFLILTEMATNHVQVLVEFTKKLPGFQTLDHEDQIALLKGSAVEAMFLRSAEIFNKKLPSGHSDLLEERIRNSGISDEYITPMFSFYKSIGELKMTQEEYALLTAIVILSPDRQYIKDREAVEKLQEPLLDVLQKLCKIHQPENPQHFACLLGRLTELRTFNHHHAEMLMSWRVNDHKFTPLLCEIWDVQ
Assay: FXR Cofactor Binding Assay (ligand mediated SRC-1 cofactor peptide interaction, time resolved fluorescence)
Format: biochemical
Settings: FXRα LBD / SRC-1 (LCD2, 676-700) peptide, TRF; read-out: Activity (pEC50) (converted)
Excerpt: Determination of a ligand mediated cofactor peptide interaction to quantify ligand binding to the nuclear receptor Farnesoid X Receptor (FXR). The method measures the ability of putative ligands to modulate the interaction between the purified bacterial expressed FXRα ligand binding domain (LBD) and a synthetic biotinylated peptide based on residues 676-700 of steroid receptor coactivator-1 (SRC-1) (LXXLL-containing domain-2 where L is the amino acid leucine and X indicates any other amino acid (LCD2), 676-700). The sequence of the SRC-1 peptide used is as published in Iannone, M. A., et al., 2001 Cytometry 44:326-337 where the N-terminus was biotinylated (B) and the C-terminus was amidated. Detection of the associated complex was measured by time resolved fluorescence (TRF). The purified LBD of FXR was labeled with biotin, then mixed with stoichiometric amounts of allophycocyanin (APC) labeled streptavidin (Molecular Probes). The biotinylated peptide was then mixed with a ½ stoichiometric amount of europium labeled streptavidin (Wallac Inc). Each was then blocked with a 5 fold excess of biotin and allowed to equilibrate for 15 min. Equimolar amounts of receptor and peptide were mixed together and were allowed to equilibrate for at least 30 min prior to the addition to either a variable or constant concentrations of the sample for which the affinity is to be determined. After equilibration, the time-resolved fluorescent signal was quantitated using a fluorescent plate reader. The affinity of the test compound was estimated from a plot of fluorescence versus concentration of test compound added.
Ligands that promote the complex formation induce a concentration-dependent increase in time-resolved fluorescent signal.
Human FXRα Ligand Binding Domain (FXRα LBD) was expressed in E. coli strain BL21 (DE3) as an amino-terminal polyhistidine tagged fusion protein. Expression was under the control of an isopropyl-β-D-thiogalactopyranoside (IPTG) inducible T7 promoter. DNA encoding this recombinant protein is subcloned into the pRSET-A expression vector (Invitrogen). The coding sequence of Human FXRα LBD was derived from Genbank accession number U 68233 (amino acids 237 to 472).
Ten-liter fermentation batches were grown in Rich PO4 media with 0.1 mg/mL Ampicillin at 25° C. for 12 hours, cooled to 9° C. and held at that temperature for 36 hours to a density of OD600=14. At this cell density, 0.25 mM IPTG is added and induction proceeded for 24 hours at 9° C., to a final OD600=16. Cells are harvested by centrifugation (20 minutes, 3500×gravity, 4° C.), and concentrated cell slurries were stored in phosphate buffered saline (PBS) at […].
Routinely, 30-40 g cell paste (equivalent to 2-3 liters of the fermentation batch) was resuspended in 200-250 mL Tris buffered saline (TBS), pH 7.2 (25 mM Tris-hydroxymethylamino methane (Tris), 150 mM sodium chloride). Cells were lysed by passing 3 times through a French Press and cell debris was removed by centrifugation (30 minutes, 20,000×gravity, 4° C.). The cleared supernatant was filtered through course pre-filters, and TBS, pH 7.2, 500 mM imidazole was added to obtain a final imidazole concentration of 50 mM. This lysate was loaded onto a column (6×8 cm) packed with Sepharose [Ni^++ charged] Chelation resin (Pharmacia) and pre-equilibrated with TBS pH 7.2/50 mM imidazole. After washing to baseline absorbance with equilibration buffer, the column was washed with one column volume of TBS pH 7.2 containing 90 mM imidazole. FXRα LBD was eluted directly with 365 mM imidazole. Column fractions were pooled and dialyzed against TBS, pH 7.2, containing 0.5 mM EDTA and 5 mM DTT. The dialyzed protein sample was concentrated using Centri-prep 10 K (Amicon) and subjected to size exclusion, using a column (3×90 cm) packed with Sepharose S-75 resin (Pharmacia) pre-equilibrated with TBS, pH 7.2, containing 0.5 mM ethylene diamine tetraacetic acid (EDTA) and 5 mM dithiothreitol (DTT).

SMILES | EC50 [nM]
CC(C)c1onc(-c2c(Cl)cccc2Cl)c1COc1ccc2c(ccn2Cc2ccc(-c3nnn[nH]3)cc2)c1 [Example 46, 5-({[3-(2,6-Dichlorophenyl)-5-(1-methylethyl)-4-isoxazolyl]methyl}oxy)-1-{[4-(1H-tetrazol-5-yl)phenyl]methyl}-1H-indole] | < 100
CC(C)c1onc(-c2c(Cl)cccc2Cl)c1COc1ccc2c(ccn2Cc2nc(C(=O)O)co2)c1 [Example 47, 2-{[5-({[3-(2,6-Dichlorophenyl)-5-(1-methylethyl)-4-isoxazolyl]methyl}oxy)-1H-indol-1-yl]methyl}-1,3-oxazole-4-carboxylic acid] | 102 to 1000
Cc1ccc(Cn2ccc3cc(OCc4c(-c5c(Cl)cccc5Cl)noc4C(C)C)ccc32)cc1C(=O)O [Example 48, 5-{[5-({[3-(2,6-Dichlorophenyl)-5-(1-methylethyl)-4-isoxazolyl]methyl}oxy)-1H-indol-1-yl]methyl}-2-methylbenzoic acid] | 102 to 1000
CC(C)c1onc(-c2c(Cl)cccc2Cl)c1COc1ccc2c(ccn2Cc2cccc(C(=O)O)n2)c1 [Example 49, 6-{[5-({[3-(2,6-Dichlorophenyl)-5-(1-methylethyl)-4-isoxazolyl]methyl}oxy)-1H-indol-1-yl]methyl}-2-pyridinecarboxylic acid] | 102 to 1000
CC(C)c1onc(-c2c(Cl)cccc2Cl)c1COc1ccc2c(ccn2Cc2nc(C(=O)O)cs2)c1 [Example 51, 2-{[5-({[3-(2,6-Dichlorophenyl)-5-(1-methylethyl)-4-isoxazolyl]methyl}oxy)-1H-indol-1-yl]methyl}-1,3-thiazole-4-carboxylic acid] | 102 to 1000
CC(C)c1onc(-c2c(Cl)cccc2Cl)c1COc1ccc2c(ccn2C(=O)N2CC[C@@H](C(=O)O)C2)c1 [Example 53, (3R)-1-{[5-({[3-(2,6-Dichlorophenyl)-5-(1-methylethyl)-4-isoxazolyl]methyl}oxy)-1H-indol-1-yl]carbonyl}-3-pyrrolidinecarboxylic acid] | 102 to 1000
CC(C)c1onc(-c2c(Cl)cccc2Cl)c1COc1ccc2c(ccn2C(=O)N2CC[C@H](C(=O)O)C2)c1 [Example 55, (3S)-1-{[5-({[3-(2,6-Dichlorophenyl)-5-(1-methylethyl)-4-isoxazolyl]methyl}oxy)-1H-indol-1-yl]carbonyl}-3-pyrrolidinecarboxylic acid] | 102 to 1000

The next lines start with the values.

EC50 [nM] | SMILES
1020 to 10000 | CC(C)c1onc(-c2c(Cl)cccc2Cl)c1COc1ccc2c(c1)CC(=O)N(c1cccc(C(=O)O)c1)C2 [Example 45, 3-[6-({[3-(2,6-Dichlorophenyl)-5-(1-methylethyl)-4-isoxazolyl]methyl}oxy)-3-oxo-3,4-dihydro-2(1H)-isoquinolinyl]benzoic acid]
1020 to 10000 | CC(C)c1onc(-c2c(Cl)cccc2Cl)c1COc1ccc2[nH]cc(Cc3cccc(C(=O)O)c3)c2c1 [Example 50, 3-{[5-({[3-(2,6-Dichlorophenyl)-5-(1-methylethyl)-4-isoxazolyl]methyl}oxy)-1H-indol-3-yl]methyl}benzoic acid]
102 to 1000 | CC(C)c1onc(-c2c(Cl)cccc2Cl)c1COc1ccc2c(Cc3cccc(C(=O)O)c3)c[nH]c2c1 [Example 52, 3-{[6-({[3-(2,6-Dichlorophenyl)-5-(1-methylethyl)-4-isoxazolyl]methyl}oxy)-1H-indol-3-yl]methyl}benzoic acid]
< 100 | CC(C)c1onc(-c2c(Cl)cccc2Cl)c1COc1ccc2sc(-c3cccc(C(=O)O)c3)cc2c1 [Example 54, 3-[5-({[3-(2,6-Dichlorophenyl)-5-(1-methylethyl)-4-isoxazolyl]methyl}oxy)-1-benzothien-2-yl]benzoic acid]
102 to 1000 | CC(C)c1onc(-c2c(Cl)cccc2Cl)c1COc1ccc2[nH]c(-c3cccc(C(=O)O)c3)cc2c1 [Example 56, 3-[5-({[3-(2,6-Dichlorophenyl)-5-(1-methylethyl)-4-isoxazolyl]methyl}oxy)-1H-indol-2-yl]benzoic acid]
